Data: the supplement of paper PMC10307832

Tests used:
Assay in all cases: relative viability (nuclei count vs DMSO), 5 days (fraction); higher = more cells survive
17-AAG = compound: C=CCNC1=C2C[C@@H](C)C[C@H](OC)[C@H](O)[C@@H](C)/C=C(\C)[C@H](OC(N)=O)[C@@H](OC)/C=C\C=C(/C)C(=O)NC(=CC1=O)C2=O [17-AAG]
Outline: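 Lung cancer cell lines received five library-drug doses (not always all listed) spaced by √10, pinned on vehicle-anchored 1536-well plates after an overnight stay at 37 °C. Five days later, with no medium change, nuclei were Hoechst-stained, imaged at 4× and counted with MetaXpress. Viability is treated-well nuclei relative to vehicle-well nuclei, as a median across plates. Passing plates had control CV below 25% and at least one doubling.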

17-AAG + Trametinib = compound: C=CCNC1=C2C[C@@H](C)C[C@H](OC)[C@H](O)[C@@H](C)/C=C(\C)[C@H](OC(N)=O)[C@@H](OC)/C=C\C=C(/C)C(=O)NC(=CC1=O)C2=O [17-AAG] + CC(=O)Nc1cccc(-n2c(=O)n(C3CC3)c(=O)c3c(Nc4ccc(I)cc4F)n(C)c(=O)c(C)c32)c1 [Trametinib] (partner 0.02 µM)
Outline: (§1)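 One day after seeding in 1536-well plates, lung cancer cell lines were dosed by pin tool. Dosing was either single-drug or a fixed anchor-drug dose plus five library-drug doses (not always all listed) in √10 steps. After 5 days, nuclei were stained in one fix-and-stain step and counted on 4× images, and relative viability is the nuclei count of treated wells over that of vehicle wells, given as the median of duplicate plates.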

17-AAG + Phenformin = compound: C=CCNC1=C2C[C@@H](C)C[C@H](OC)[C@H](O)[C@@H](C)/C=C(\C)[C@H](OC(N)=O)[C@@H](OC)/C=C\C=C(/C)C(=O)NC(=CC1=O)C2=O [17-AAG] + N=C(N)NC(=N)NCCc1ccccc1 [Phenformin] (partner 250 µM)
Outline: as §1

17-AAG + Olaparib = compound: C=CCNC1=C2C[C@@H](C)C[C@H](OC)[C@H](O)[C@@H](C)/C=C(\C)[C@H](OC(N)=O)[C@@H](OC)/C=C\C=C(/C)C(=O)NC(=CC1=O)C2=O [17-AAG] + O=C(c1cc(Cc2n[nH]c(=O)c3ccccc23)ccc1F)N1CCN(C(=O)C2CC2)CC1 [Olaparib] (partner 8 µM)
Outline: as §1

Cell Line	relative viability (17-AAG; 0.00128 µM)	relative viability (17-AAG; 0.004048 µM)	relative viability (17-AAG; 0.0128 µM)	relative viability (17-AAG; 0.04048 µM)	relative viability (17-AAG; 0.128 µM)	relative viability (17-AAG + Trametinib; first compound 0.00128 µM)	relative viability (17-AAG + Trametinib; first compound 0.004048 µM)	relative viability (17-AAG + Trametinib; first compound 0.0128 µM)	relative viability (17-AAG + Trametinib; first compound 0.04048 µM)	relative viability (17-AAG + Trametinib; first compound 0.128 µM)	relative viability (17-AAG + Phenformin; first compound 0.00128 µM)	relative viability (17-AAG + Phenformin; first compound 0.004048 µM)	relative viability (17-AAG + Phenformin; first compound 0.0128 µM)	relative viability (17-AAG + Phenformin; first compound 0.04048 µM)	relative viability (17-AAG + Phenformin; first compound 0.128 µM)	relative viability (17-AAG + Olaparib; first compound 0.00128 µM)	relative viability (17-AAG + Olaparib; first compound 0.004048 µM)	relative viability (17-AAG + Olaparib; first compound 0.0128 µM)	relative viability (17-AAG + Olaparib; first compound 0.04048 µM)	relative viability (17-AAG + Olaparib; first compound 0.128 µM)
UMC-11	0.943	1.01	0.839	0.478	0.195	0.672	0.773	0.629	0.234	0.145	0.297	0.292	0.249	0.223	0.19	0.519	0.376	0.261	0.0963	0.174
LU99A	0.909	0.867	0.627	0.369	0.169	0.549	0.538	0.508	0.384	0.134	0.725	0.734	0.468	0.225	0.116	0.271	0.26	0.237	0.165	0.162
NCI-H650	0.894	1.01	0.798	0.511	0.264	0.983	1.03	0.934	0.551	0.224	0.445	0.459	0.421	0.308	0.228	0.392	0.355	0.412	0.212	0.0846
A-427	0.967	1.01	0.95	0.62	0.265	0.799	0.759	0.946	0.419	0.282	0.353	0.347	0.374	0.271	0.167	0.814	0.686	0.806	0.606	0.241
COR-L 105	0.917	0.966	1	0.488	0.547	0.473	0.406	0.501	0.375	0.335	0.55	0.453	0.463	0.354	0.299	0.601	0.71	0.778	0.55	0.515
NCI-H460	0.96	0.965	0.198	0.0341	0.0297	0.202	0.0484	0.0114	0.0258	0.0229	0.468	0.332	0.0221	0.021	0.0236	0.476	0.318	0.0627	0.0448	0.0462
NCI-H2126	1.01	0.995	0.957	0.435	0.26	0.576	0.568	0.625	0.594	0.443	0.576	0.563	0.305	0.289	0.271	0.895	0.887	0.893	0.762	0.265
HCC-44	1	0.976	0.992	0.278	0.19	1.04	1.01	0.988	1.05	0.804	0.22	0.285	0.158	0.0925	0.0873	0.976	0.989	1	0.997	0.492
NCI-H520	1.01	0.974	0.566	0.193	0.185	0.706	0.673	0.468	0.154	0.129	0.617	0.511	0.406	0.234	0.165	0.34	0.232	0.162	0.136	0.12
SW 1573	0.973	0.95	0.542	0.151	0.104	0.589	0.381	0.161	0.117	0.0829	0.34	0.257	0.123	0.145	0.1	0.441	0.234	0.182	0.113	0.0907
NCI-H441	0.857	0.693	0.223	0.192	0.105	0.454	0.439	0.148	0.132	0.0927	0.877	0.397	0.184	0.182	0.129	0.555	0.547	0.208	0.135	0.124
EKVX	1	1.02	1.05	0.261	0.229	0.341	0.306	0.289	0.127	0.117	0.26	0.222	0.139	0.195	0.0638	0.826	0.762	0.775	0.175	0.126
NCI-H1734	0.98	1.02	0.839	0.284	0.15	0.759	0.633	0.576	0.245	0.15	0.371	0.368	0.305	0.142	0.118	0.558	0.686	0.59	0.255	0.119
SW 900	0.831	0.727	0.312	0.155	0.141	0.587	0.513	0.208	0.128	0.153	0.577	0.37	0.13	0.0856	0.0981	0.892	0.491	0.244	0.192	0.163
NCI-H596	0.931	0.917	0.955	0.816	0.404	0.841	0.852	0.767	0.704	0.308	0.829	0.68	0.554	0.781	0.309	0.784	0.739	0.674	0.48	0.371
